# Legend:
# C2C12 cells = assay: Immunocytochemical analysis of TGF-β1-stimulated C2C12 myoblasts; type: cell-based, mouse; conditions: low or high concentration halofuginone after TGF-β1 stimulation (FIG. 4c)
# Experimental: Specifically, C2C12 cells were plated in 6-well plates with coverslips and stimulated with rhTGF-β1 in serum-free medium. After 24 hours of stimulation, the cells were treated with low or high concentrations of halofuginone in serum-free medium for 24 hours. The cells were washed three times with PBS and fixed in 4% paraformaldehyde at room temperature for 15 minutes. The fixed cells were then washed three times with PBS and treated with 0.5% Triton X-100 for 5 minutes. Subsequently, they were blocked with 5% bovine serum albumin in 0.3% PBS-T for 1 hour at room temperature. The cells were incubated with anti-α-SMA antibody (1:200; abcam cat #ab7817) and anti-MyoD antibody (1:200; Santa Cruz, cat #sc377460) in blocking buffer at 4° C. for 24 hours. After washing three times with PBS, the cells were incubated with Alexa Fluor secondary antibodies at room temperature for 1 hour. Nuclear DNA was stained with DAPI (4,6-diamino-2-phenylindole, 1:1,000; Sigma), washed twice with PBS, and coverslips were mounted on glass slides using a Dako fluorescence mounting medium (Dako). […] In addition, it was quantified in a blind manner using Leica Application Suite X software (Leica Microsystems). […]
# [1] = test system: G93A mutant SOD1 transgenic mice; assay: Motor neuron cell count (ChAT) in lumbar spinal cord of ALS animal model; type: in vivo, mouse
# Experimental: As a control group, non-transgenic mice were injected intraperitoneally (i.p.) with vehicle (DMSO) in the same manner for the same period of time.
# Specifically, mice were sacrificed at various time points (90 days and 120 days) according to the clinical state of the mice of Example 6. Each mouse was transdermally perfused with cold 4% paraformaldehyde (PFA) following cold PBS, and lumbar spinal cord was separated. Samples were post-fixed in 4% paraformaldehyde, treated in a cold 30% sucrose solution, then freeze-protected, and then cross-sectional sections 14 μm thick were successively obtained. […] Motor neurons were quantified from ChAT-stained sections using a computer-assisted microscope (Olympus BX53) at 4× magnification, along with cellSens software. […] The fields analyzed were all ChAT+ profiles located in the ventral half of the immunostaining section clearly marked on the gray matter of each hemisphere.
# In addition, to investigate the motor neuron source of the spinal cord, motor neurons of the lumbar spinal cord were observed and counted in the same manner as described in Example 9 (FIG. 9d), and real-time qRT-PCR and Western blot analysis were performed in the same manner as described in Example 11 and Example 12 to quantitatively analyze the expression of ChAT mRNA (FIG. 9e) and ChAT protein (FIG. 9f). […]
compound,measurement,setting,value
O=C(C[C@H]1NCCC[C@@H]1O)Cn1cnc2cc(Br)c(Cl)cc2c1=O (racemic) [halofuginone],intensity of MyoD (immunofluorescence),C2C12 cells,recovery
same,intensity of α-SMA (immunofluorescence),C2C12 cells,reduction
same,"number of ChAT-positive motor neurons in lumbar spinal cord, compared with changes at 120 days",[1]; 90-day-old mice (FIG. 10b),similar
same,number of ChAT-positive motor neurons in lumbar spinal cord,"[1]; 120-day-old mice, compared to DMSO Non-TG group (FIG. 9d)",preserved similarly
